In patent publication US20240158794A1, “NUCLEOSIDE CONTAINING siRNAS FOR TREATING VIRAL DISEASES” (priority 2020, published 2024):
Where two headings read alike, the source gives them in different places. Where no end group is shown, it is not given here.

Legend:
[1] = human, in vivo; cited from earlier work
[2] = test system: HBV; conditions: compared with lamivudine; cited from earlier work
[3] = test system: HBV; conditions: 715 treatment-naive HBeAg-positive patients, compared with lamivudine; cited from earlier work
[4] = test system: target mRNA; conditions: cited from earlier work
[5] = siRNA uptake with HK carriers; format: cell-based; conditions: compared with other HK polymers or non-viral carriers tested
[6] = test system: target mRNA; experiment: HK polymers as carriers of siRNA (transfection, reduction of target mRNA); format: cell-based; conditions: highly branched polymers with eight terminal branches

Cc1cn([C@H]2O[C@@H](CO)[C@H](O)[C@H]2F)c(=O)[nH]c1=O [Clevudine, 2′-fluoro-5-methyl-b-L-arabinofuranosyl-uracil]
adverse events that halted development [1]: myopathy and mitochondrial toxicity

C=C1[C@H](CO)[C@@H](O)C[C@@H]1n1cnc2c(=O)[nH]c(N)nc21 [Entecavir]
reducing viral DNA replication in vitro [2]: more effective than lamivudine
rate of histological, virological and biochemical improvement [3]: significantly higher rate

H^2K4b: four-branched histidine-lysine peptide polymer, branch KHKHHKHHKHHKHHKHHKHK- (also: one branch of four-branched polymer on lysine core)
carrier of siRNA [4]: poor carrier

H^3K4b: four-branched histidine-lysine peptide polymer, branch KHHHKHHHKHHHKHHHK- (also: one branch of four-branched polymer on lysine core)
carrier of siRNA [4]: effective carriers

B1: H^3K8b: highly branched histidine-lysine polymer with eight terminal branches and a histidine-rich domain (peptide)
chain 1: HHHKHHHKHHHKHHH
chain 2: HHHKHHHKHHHKHHHKHHHHNHHHH
chain 3: HHHKHHHKHHHKHHHKHHHHNHHHHKKK-NH2
modifications: also: chain 2 K16 side chain amide-linked to another sequence, chain 3 K16, K26, K27, K28 side chains amide-linked to other sequences (branched core)
siRNA uptake [5]: more effectively than other HK polymers or non-viral carriers tested
carrier of siRNA [6]: highly effective
